Where two headings read alike, the source gives them in different places.
What was measured:
[1] = tested on: Hepatitis B Virus (HBV); assay: HBV test system in HBV-DNA-transfected hepatoma cells (HEP G2.2.15): HBV DNA in supernatant, HBsAg ELISA; type: cell-based; conditions: read-out: IC₅₀
Source text: Es wurde überraschend gefunden, daß die erfindungsgemäßen Verbindungen der allgemeinen Formel (I) eine außerordentlich starke spezifische Wirkung gegen das Heptatitis B Virus (HBV) besitzen. Der Nachweis wurde in mit Hepatitis B Virus DNA transfizierten Hepatomzellen (HEP G2.2.15) geführt.
Die Ergebnisse der unten aufgeführten Beispiele wurden zu dem in der folgenden Literaturangabe [Sells, M.A.; Chen, M.L., Acs, G., Proc. Natl. Acad. Sci. USA S. 1005 - 1009, Vol. 84 (1987)] beschriebenen HBV Testsystem ermittelt: Transfizierte Hepatomzellen (HEP G2.2.15) wurden mit verschiedenen Konzentrationen an der jeweiligen Verbindung inkubiert. Durch Behandlung der transfizierten Hepatomzellinie HEP G2.2.15 mit den erfindungsgemäßen Verbindungen konnte das […] der virusspezifischen HBV DNA im Überstand sowie eine Reduktion des HBsAg Spiegels gezeigt werden. Es wurde weiter gefunden, daß die erfindungsgemäßen Verbindungen zu einer Reduktion der replikativen Intermediate der Hepatitisviren führen. Im Überstand der Zellkulturen wurde nach PEG Fällung der Gehalt an HBV DNA bestimmt. Dies geschah unter Verwendung einer nicht radioaktiv markierten HBV genomischen DNA Probe [Pauly, P., 1982, P.H.D. Thesis, University of Göttingen, F.R.G.; Köchel et al., 1990, EMBL, Accession-Nr. X 51790]. Gleichzeitig erfolgte der Nachweis der Beeinflussung der HBsAg Bildung mittels eines kommerziell erhältlichen Elisa Tests. Die angegebenen IC₅₀-Werte beziehen sich auf die Substratkonzentrationen, die unter den oben aufgeführten Testbedingungen eine 50%ige Hemmung der HBV DNA Konzentration im Überstand bewirken.

[2] = tested on: MEF-Zellen; assay: Effect on vitality of other cells by incubation (MEF); type: cell-based; conditions: no influence on vitality up to this concentration
Description: (§1) Die Wirkung des Beispiels 2 auf andere Zellen wurde durch Inkubation von HEL-, MEF-Zellen getestet. Es zeigte sich keine Beeinflussung der Vitalität dieser Zellen bis zu einer Konzentration von 250 µM.

[3] = tested on: HEL-Zellen; assay: Effect on vitality of other cells by incubation (HEL); type: cell-based; conditions: no influence on vitality up to this concentration
Description: as §1

[4] = Water solubility (qualitative remark on the lyophilisate); type: physicochemical; conditions: lyophilisate of the sodium salt
[5] = HEP G2.2.15 cells, concentration giving 50% inhibition of HBV DNA concentration in supernatant

Compound: O=c1[nH]c(=O)n([C@H]2CC[C@@H](CO)O2)cc1C(F)(F)F [Beispiel 2, β-2',3'-Didesoxy-5-(trifluormethyl)-uridin]
- IC50 [1, 5]: 0.01 nM
- Beeinflussung der Vitalität dieser Zellen [2]: > 250 µM
- Beeinflussung der Vitalität dieser Zellen [3]: > 250 µM

Compound: Nc1ccn([C@H]2CC[C@@H](CO)O2)c(=O)n1 [DDC, 2',3'-Didesoxy-cytidin, reference compound]
- IC50 ([1]; Hepatitis B virus, HepG2.2.15, reference substances in the same test system (HEP G2.2.15, HBV DNA in supernatant)): 5000 nM

Compound: O=c1[nH]c(=O)n([C@H]2CC[C@@H](CO)O2)cc1C(F)(F)F.[Na] [Beispiel 12, β-2',3'-Didesoxy-5-(trifluormethyl)-uridin-natriumsalz]
- Wasserlöslichkeit [4]: gut wasserlösliches

Compound: Nc1ncnc2c1ncn2[C@H]1CC[C@@H](CO)O1 [DDA, reference compound]
- IC50 ([1]; reference substances in the same test system (HEP G2.2.15, HBV DNA in supernatant)): > 100000 nM

Compound: β-5'-(1-Ethoxycarbonyloxy-eth-1-yl)-2',3'-didesoxy-5-(trifluormethyl)-uridin [Beispiel 5]
- IC50 [1, 5]: > 0.25 nM

Source: EP0507188A1, “Substituted 2',3'-dideoxy-5-trifluoromethyluridines, method of their preparation and their use in medicaments” (BAYER AG, priority 1991, dated 1992)
